Laboratory results: publication PMC7238114, “L-Type Amino Acid Transporter 1-Utilizing Prodrugs of Ketoprofen Can Efficiently Reduce Brain Prostaglandin Levels” (Pharmaceutics, 2020)

Test system: cyclooxygenase (COX; isoform not resolved, COX1/COX2)
Assay: fluorometric COX peroxidase activity assay (Amplex Red) in BV2 cell lysate
Type: biochemical

Row | SMILES | IC50 [nM]
1 | CC(C(=O)O)c1cccc(C(=O)c2ccccc2)c1 (stereo not drawn) [KPF, ketoprofen] | 850 ± 1180
2 | CC(C(=O)NCCCC[C@H](N)C(=O)O)c1cccc(C(=O)c2ccccc2)c1 (stereo partly drawn) [PD2, pro-drug 2] | 1050 ± 1210
3 | CC(C(=O)NCC[C@H](N)C(=O)O)c1cccc(C(=O)c2ccccc2)c1 (stereo partly drawn) [PD3, pro-drug 3] | 2260 ± 1330
